# From patent US11389415B2, “Methods of regulating cannabinoid receptor activity-related disorders and diseases” (The United States of America as represented by the …, priority 2012, dated 2022)
# Read-outs that look alike come from different tables or passages of the source.
# Tests used:
# GL261 = experiment: tumor cell growth, GL261; conditions: read-out: IC50 (uM), GL261 (CNS); Table 6
# HEP3B [1] = experiment: tumor cell growth (CTG), HEP3B
# A172 = experiment: tumor cell growth, A172; conditions: read-out: IC50 (uM), A172 (CNS); Table 6
# HT29 [2] = experiment: tumor cell growth (CTG), HT29
# PC3 [3] = experiment: tumor cell growth (CTG), PC3
# HCT116 [4] = experiment: tumor cell growth (CTG), HCT116
# MDAMB231 = experiment: tumor cell growth, MDAMB231; conditions: read-out: IC50 (uM), MDAMB231 (Breast C); Table 6
# MCF7 = experiment: tumor cell growth, MCF7; conditions: read-out: IC50 (uM), MCF7 (Breast C); Table 6
# Du-145 = experiment: tumor cell growth, Du-145; conditions: read-out: IC50 (uM), Du-145 (Prostate C); Table 6
# [5] = Effect on central nervous system functions; format: in vivo; conditions: as compared to tetrahydrocannabinol
# Description: Additional studies were performed which further evaluated the effect of MNF on central nervous system functions.
# LN229 = experiment: [3H]-Thymidine incorporation in 96-well plates (Thy), LN229; conditions: read-out: IC50 (uM), LN229 (CNS Cancer)
# LN-229 = experiment: tumor cell growth (CTG), LN-229 / LN229
# U251 = experiment: tumor cell growth, U251; conditions: read-out: IC50 (uM), U251 (CNS); Table 6
# HEP3B [6] = experiment: [3H]-Thymidine incorporation in 96-well plates (Thy), HEP3B; conditions: read-out: IC50 (uM), HEP3B (Liver Cancer)
# PC3 [7] = experiment: [3H]-Thymidine incorporation in 96-well plates (Thy), PC3; conditions: read-out: IC50 (uM), PC3 (Prostrate Cancer)
# PANC-1 = experiment: tumor cell growth, PANC-1; conditions: read-out: IC50 (uM), PANC-1 (Pancreatic C); Table 6
# U87 = experiment: tumor cell growth, U87; conditions: read-out: IC50 (uM), U87 (CNS); Table 6
# U118 = experiment: tumor cell growth, U118; conditions: read-out: IC50 (uM), U118 (CNS); Table 6
# HT29 [8] = experiment: Thymidine (Thy) 96 well, HT29; conditions: read-out: IC50 (uM), HT29 (Colon Cancer)
# NCIH460 = experiment: Thymidine (Thy) 96 well, NCIH460; conditions: read-out: IC50 (uM), NCIH460 (NSCLC)
# H460 = experiment: tumor cell growth (CTG), H460 / NCIH460
# LN-18 = experiment: tumor cell growth, LN-18; conditions: read-out: IC50 (uM), LN-18 (CNS); Table 6
# HCT116 [9] = experiment: Thymidine (Thy) 96 well, HCT116; conditions: read-out: IC50 (uM), HCT116 (Colon Cancer)
# A549 = experiment: tumor cell growth, A549; conditions: read-out: IC50 (uM), A549 (NSCLC); Table 6
# HEPG2 = experiment: tumor cell growth, HEPG2; conditions: read-out: IC50 (uM), HEPG2 (Liver C); Table 6
# GPR55 = GPR55 (Homo sapiens, UniProt Q9Y2T6); experiment: Cellular uptake of TocriFluor T1117 in PANC-1 cells; conditions: MNF 1 μM
# Sequence of GPR55 (Q9Y2T6 whole entry): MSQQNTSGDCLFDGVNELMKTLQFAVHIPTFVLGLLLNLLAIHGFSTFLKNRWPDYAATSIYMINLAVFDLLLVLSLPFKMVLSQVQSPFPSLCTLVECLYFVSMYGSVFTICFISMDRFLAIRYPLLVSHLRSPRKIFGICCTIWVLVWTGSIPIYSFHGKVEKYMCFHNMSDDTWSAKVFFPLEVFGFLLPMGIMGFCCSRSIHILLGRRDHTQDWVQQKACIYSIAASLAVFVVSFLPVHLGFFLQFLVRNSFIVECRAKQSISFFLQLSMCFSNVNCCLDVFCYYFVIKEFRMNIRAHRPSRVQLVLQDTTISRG
# Description: Cellular uptake of TocriFluor T1117, a fluorescently labeled GPR55 agonist Cells were grown in 35-mm glass bottom culture dishes (MatTek Corp., Ashland, Mass., USA) for 48 hours until reaching ˜70% confluence. […] Cells were imaged with a Zeiss LSM 710 confocal microscope equipped with a temperature-controlled and humidified CO2 chamber and a definite focus system. […] The time-series function of the Zeiss Zen software was used to collect images with a 40×1.3 NA objective every 30 s for up to one hour, with all confocal settings remaining the same throughout the studies. Still images, movies and fluorescent intensity quantitation were obtained from these series using the Zeiss Zen software. Studies were repeated at least two to three times.
smiles,measurement,setting,value
"COc1ccc(C[C@@H](C)NC[C@H](O)c2cc(O)cc(O)c2)c2ccccc12 [(R,R′)-MNF, (R,R′)-4′-methoxy-1-naphthylfenoterol]",IC50,GL261,21.3 µM
same,IC50,"HEP3B [1]; read-out: IC50 (uM), HEP3B (Liver C), Table 6",14.7 µM
same,IC50,"HEP3B [1]; read-out: IC50 (uM), HEP3B (Liver Cancer), 96 well CTG 1 day treatment",28.3 µM
same,IC50,"HEP3B [1]; read-out: IC50 (uM), HEP3B (Liver Cancer), 96 well CTG 2 days treatment",13.5 µM
same,IC50,"HEP3B [1]; read-out: IC50 (uM), HEP3B (Liver Cancer), 384well CTG 3 days treatment −1",14.7 µM
same,IC50,"HEP3B [1]; read-out: IC50 (uM), HEP3B (Liver Cancer), 384well CTG 3 days treatment −2",12.1 µM
same,IC50,A172,30.5 µM
same,IC50,"HT29 [2]; read-out: IC50 (uM), HT29 (Colon C), Table 6",10.7 µM
same,IC50,"HT29 [2]; read-out: IC50 (uM), HT29 (Colon Cancer), 96 well CTG 1 day treatment",30.4 µM
same,IC50,"HT29 [2]; read-out: IC50 (uM), HT29 (Colon Cancer), 96 well CTG 2 days treatment",11.7 µM
same,IC50,"HT29 [2]; read-out: IC50 (uM), HT29 (Colon Cancer), 384well CTG 3 days treatment −1",10.7 µM
same,IC50,"PC3 [3]; read-out: IC50 (uM), PC3 (Prostate C), Table 6",28.1 µM
same,IC50,"PC3 [3]; read-out: IC50 (uM), PC3 (Prostrate Cancer), 96 well CTG 1 day treatment",34.5 µM
same,IC50,"PC3 [3]; read-out: IC50 (uM), PC3 (Prostrate Cancer), 96 well CTG 2 days treatment",20.4 µM
same,IC50,"PC3 [3]; read-out: IC50 (uM), PC3 (Prostrate Cancer), 384well CTG 3 days treatment −1",28.1 µM
same,IC50,"HCT116 [4]; read-out: IC50 (uM), HCT116 (Colon C), Table 6",12.9 µM
same,IC50,"HCT116 [4]; read-out: IC50 (uM), HCT116 (Colon Cancer), 96 well CTG 1 day treatment",19 µM
same,IC50,"HCT116 [4]; read-out: IC50 (uM), HCT116 (Colon Cancer), 96 well CTG 2 days treatment",10.5 µM
same,IC50,"HCT116 [4]; read-out: IC50 (uM), HCT116 (Colon Cancer), 384well CTG 3 days treatment −1",12.9 µM
same,IC50,"HCT116 [4]; read-out: IC50 (uM), HCT116 (Colon Cancer), 384well CTG 3 days treatment −2",12.2 µM
same,IC50,MDAMB231,33.2 µM
same,IC50,MCF7,37.2 µM
same,IC50,Du-145,34.8 µM
same,effects on the central nervous system,[5],not have any significant negative effects on the central nervous system
same,IC50,LN229; 96 well Thy 2 days treatment,10.4 µM
same,IC50,LN229; 96 well Tye 1 day treatment,9.64 µM
same,IC50,"LN-229; read-out: IC50 (uM), LN229 (CNS Cancer), 96 well CTG 1 day treatment",29.3 µM
same,IC50,"LN-229; read-out: IC50 (uM), LN229 (CNS Cancer), 96 well CTG 2 days treatment",15.7 µM
same,IC50,"LN-229; read-out: IC50 (uM), LN229 (CNS Cancer), 384well CTG 3 days treatment −1",26.8 µM
same,IC50,"LN-229; read-out: IC50 (uM), LN-229 (CNS), Table 6",26.8 µM
same,IC50,U251,26.7 µM
same,IC50,HEP3B [6]; 96 well Thy 2 days treatment,10 µM
same,IC50,HEP3B [6]; 96 well Tye 1 day treatment,10.7 µM
same,IC50,PC3 [7]; 96 well Thy 2 days treatment,10.8 µM
same,IC50,PC3 [7]; 96 well Tye 1 day treatment,11 µM
same,IC50,PANC-1,33.4 µM
same,IC50,U87,25.7 µM
same,IC50,U118,37 µM
same,IC50,HT29 [8]; 96 well Thy 2 days treatment,19.6 µM
same,IC50,HT29 [8]; 96 well Tye 1 day treatment,13 µM
same,IC50,NCIH460; 96 well Thy 2 days treatment,21 µM
same,IC50,NCIH460; 96 well Tye 1 day treatment,25.1 µM
same,IC50,"H460; read-out: IC50 (uM), H460 (NSCLC), Table 6",11.6 µM
same,IC50,"H460; read-out: IC50 (uM), NCIH460 (NSCLC), 96 well CTG 1 day treatment",38.9 µM
same,IC50,"H460; read-out: IC50 (uM), NCIH460 (NSCLC), 96 well CTG 2 days treatment",15.4 µM
same,IC50,"H460; read-out: IC50 (uM), NCIH460 (NSCLC), 384well CTG 3 days treatment −1",11.6 µM
same,IC50,"H460; read-out: IC50 (uM), NCIH460 (NSCLC), 384well CTG 3 days treatment −2",17.7 µM
same,IC50,LN-18,29.7 µM
same,IC50,HCT116 [9]; 96 well Thy 2 days treatment,11 µM
same,IC50,HCT116 [9]; 96 well Tye 1 day treatment,23.8 µM
same,IC50,A549,23.1 µM
same,IC50,HEPG2,28.8 µM
same,T1117 incorporation,GPR55,potent inhibitor of T1117 incorporation in PANC-1 cells
